The record followed here is US12065445B2, “CDK2 inhibitors and methods of using the same” (Cedilla Therapeutics, Inc., priority 2021, dated 2024).

The IC50 is the concentration needed to halve the response being measured.

Bounds are passed on as bounds.

For one test, the system named is Kuramochi cells. As to the kind of experiment: BrdU Cell Proliferation Assay. It counts as cell-based. Conditions: read-out: BrdU - KURAMOCHI.1: IC50. The procedure, abridged:
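Signal is 450 nm absorbance from a peroxidase anti-BrdU ELISA after a 1-hour BrdU label, background-subtracted and normalized to DMSO-treated wells. Kuramochi cells (2,000 per well) had been exposed to compound for 4 days. Dosing used a 10-point dose response in 3-fold steps.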

Test [1] relates to Kuramochi cells labeled with mApple-H2B. The test can be described thus: IncuCyte Cell Proliferation Assay. Conditions: 72 h. The class given is cell-based. The procedure, abridged:
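GI50 came from dose-response fits of cell-count fold change between 0 and 72 h, normalized to DMSO controls. Counts were fluorescent nuclei from live-cell images over a 10-point, ½ log series starting at 20 μM.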

Regarding `CNC(=O)[C@@H](NC(=O)[C@@H]1CN(C(=O)c2cnn(Cc3ccccc3)c2)CC12CN(C(=O)N(C)C1CC1)C2)[C@@H](C)OCC1CCCCC1` [I-295], the IC50 in the test on Kuramochi cells was 5 to 10 µM; in test [1] it was 5 to 20 µM.
For `CNC(=O)[C@@H](NC(=O)[C@@H]1CN(C(=O)c2cnn(Cc3ccccc3)c2)CC12CN(C(=O)NC(C)C)C2)[C@@H](C)OCC1CCCCC1` [I-267], the IC50 with Kuramochi cells was above 10 µM; in test [1] it was above 20 µM.
As for `C[C@@H](OCC12CCC(CC1)CC2)[C@H](NC(=O)[C@@H]1CN(C(=O)c2cncs2)CC12CN(C(=O)[C@H]1CC1(C)C)C2)C(C)(C)O` [I-304], the IC50 (with Kuramochi cells; in test [1]) was 0.5 to 5 µM each time.
As for `CC1(C)C[C@@H]1C(=O)N1CC2(CN(C(=O)c3cncs3)C[C@H]2C(=O)N[C@@H](COCC2CCCCC2)C(=O)N2CCCCC2)C1` [I-286], the IC50 (with Kuramochi cells; in test [1]) was 0.5 to 5 µM in each case.
Consider `CNC(=O)C(NC(=O)[C@@H]1CN(C(=O)c2cncs2)CC12CN(C(=O)[C@H]1CC1(C)C)C2)c1cccc(N2CC3(CC(C(F)(F)F)C3)C2)n1` (stereo partly shown) [I-430], for which the figures for the IC50 (in the test on Kuramochi cells; in test [1]) were above 10 µM and above 20 µM, respectively.
For `C[C@@H](OCC1CCCCC1)[C@H](NC(=O)[C@H]1CN(C(=O)c2cnn(Cc3ccccc3)c2)CC12CN(C(=O)[C@H]1CC1(C)C)C2)C(=O)N1CCCCC1` [I-194B], the half-maximal inhibitory concentration (IC50) with Kuramochi cells was in the range of 0.5 to 5 µM; in test [1], 5 to 20 µM.
For `CNC(=O)[C@@H](NC(=O)[C@@H]1CN(C(=O)c2cnc(C3CC3)s2)CC12CN(C(=O)[C@H]1CC1(C)C)C2)[C@@H](C)OCC1CCCCC1` [I-178A] the same measures were above 10 µM and 5 to 20 µM.
With `CC(O[C@H](C)[C@H](NC(=O)[C@@H]1CN(C(=O)c2cncs2)CC12CN(C(=O)[C@H]1CC1(C)C)C2)C(=O)N1CCCCC1)C1CCCCC1` (stereo partly drawn) [I-284, (8S)—N-((2S,3R)-3-(1-cyclohexylethoxy)-1-oxo-1-(piperidin-1-yl)butan-2-yl)-2-((S)-2,2-dimethylcyclopropane-1-carbonyl)-6-(thiazole-5-carbonyl)-2,6-diazaspiro[3.4]octane-8-carboxamide], the 50% inhibitory concentration (IC50) (in the test with Kuramochi cells; in test [1]) was 0.5 to 5 µM throughout.
On to `COC[C@H]1CCCN(C(=O)[C@@H](NC(=O)[C@@H]2CN(C(=O)c3cncs3)CC23CN(C(=O)[C@H]2CC2(C)C)C3)[C@@H](C)OCc2cccc(F)c2)C1` [I-322], for which the half-maximal inhibitory concentration (IC50) (with Kuramochi cells; in test [1]) was 0.5 to 5 µM each time.
Take `CNC(=O)C(NC(=O)[C@@H]1CN(C(=O)c2cncs2)CC12CN(C(=O)[C@H]1CC1(C)C)C2)c1cccc(N2CCOCC2)n1` (stereo partly shown) [I-422]: the IC50 in the test with Kuramochi cells was above 10 µM; in test [1], above 20 µM.
Regarding `C[C@@H](OCC1CCC(F)(F)CC1)[C@H](NC(=O)[C@@H]1CN(C(=O)c2cnn(Cc3ccc(F)cc3)c2)CC12CN(C(=O)[C@H]1CC1(C)C)C2)C(N)=O` [I-203], the half-maximal inhibitory concentration (IC50) (in the test with Kuramochi cells; in test [1]) was 0.5 to 5 µM each time.
Regarding `C[C@@H](OCc1ccccc1)[C@H](NC(=O)[C@@H]1CN(C(=O)c2cnn(Cc3ccccc3)c2)CC12CN(C(=O)[C@H]1CC1(C)C)C2)C(=O)N1CCC(F)(F)CC1` [I-280], the IC50 (in the test on Kuramochi cells; in test [1]) was 0.5 to 5 µM throughout.
`COC[C@H]1CCCN(C(=O)[C@@H](NC(=O)[C@@H]2CN(C(=O)c3cncs3)CC23CN(C(=O)[C@H]2CC2(C)C)C3)[C@@H](C)OCc2ccc(C(F)(F)F)cc2)C1` [I-319]: the figures for the IC50 (in the test with Kuramochi cells; in test [1]) were at most 0.5 µM and 0.5 to 5 µM, respectively.
In the case of `CNC(=O)[C@@H](NC(=O)[C@@H]1CN(C(=O)c2cnc(Cl)s2)CC12CN(C(=O)[C@H]1CC1(C)C)C2)[C@@H](C)OCC1CCCCC1` [I-189A], the half-inhibitory concentration (IC50) is above 10 µM with Kuramochi cells and 5 to 20 µM in test [1].
Turning to `CNC(=O)C(NC(=O)[C@@H]1CN(C(=O)c2cncs2)CC12CN(C(=O)[C@H]1CC1(C)C)C2)c1cccc(C2CCCCC2)n1` (stereo partly shown) [I-362], the IC50 was 0.5 to 5 µM in the test on Kuramochi cells and 5 to 20 µM in test [1].
With `CNC(=O)[C@@H](NC(=O)[C@@H]1CN(C(=O)c2cncs2)CC12CN(C(=O)[C@H]1CC1(C)C)C2)[C@@H](C)OCC1CC2CCC1C2` (stereo partly shown) [I-465], the values for the concentration for half-maximal inhibition (IC50) (in the test with Kuramochi cells; in test [1]) were 0.5 to 5 µM and at most 0.5 µM, respectively.
`C[C@@H](OCC1CCCCC1)[C@H](NC(=O)[C@@H]1CN(C(=O)c2cnn(Cc3ccccc3)c2)CC12CN(C(=O)[C@H]1CC1(C)C)C2)C(=O)N1CCCCC1` [I-194A, (S)-6-(1-benzyl-1H-pyrazole-4-carbonyl)-N-((2S,3R)-3-(cyclohexylmethoxy)-1-oxo-1-(piperidin-1-yl)butan-2-yl)-2-((S)-2,2-dimethylcyclopropane-1-carbonyl)-2,6-diazaspiro[3.4]octane-8-carboxamide]: the IC50 (in the test on Kuramochi cells; in test [1]) was at most 0.5 µM throughout.
`CNC(=O)[C@H](CO)NC(=O)C1CN(C(=O)c2cnn(Cc3ccccc3)c2)CC12CN(C(=O)[C@H]1CC1(C)C)C2` (stereo partly shown) [I-260]: the results for the concentration for half-maximal inhibition (IC50) (in the test with Kuramochi cells; in test [1]) were above 10 µM and above 20 µM, respectively.
For `CO[C@H](C)[C@H](NC(=O)[C@@H]1CN(C(=O)c2cnn(Cc3ccccc3)c2)CC12CN(C(=O)[C@H]1CC1(C)C)C2)C(=O)N1CCC(CN)CC1` [I-306], the IC50 was above 10 µM with Kuramochi cells and above 20 µM in test [1].
For `CNC(=O)[C@@H](NC(=O)[C@@H]1CN(C(=O)c2sc(Cl)nc2C)CC12CN(C(=O)[C@H]1CC1(C)C)C2)[C@@H](C)OCC1CCCCC1` [I-208A] the same measures were at most 0.5 µM and at most 0.5 µM.
Take `CNC(=O)[C@@H](NC(=O)[C@H]1CN(C(=O)c2scnc2C2CCCC2)CC12CN(C(=O)[C@H]1CC1(C)C)C2)[C@@H](C)OCC1CCCCC1` [I-224A]: the IC50 is above 10 µM in the test with Kuramochi cells and above 20 µM in test [1].
With `CC1(C)C[C@@H]1C(=O)N1CC2(CN(C(=O)c3cnn(Cc4ccccc4)c3)C[C@H]2C(=O)NCc2ccc(Cl)nn2)C1` [I-376], the half-maximal inhibitory concentration (IC50) in the test on Kuramochi cells was above 10 µM; in test [1], above 20 µM.
With `Cc1ccc(CNC(=O)[C@@H]2CN(C(=O)c3cnn(Cc4ccccc4)c3)CC23CN(C(=O)[C@H]2CC2(C)C)C3)cc1` [I-363], the half-inhibitory concentration (IC50) in the test with Kuramochi cells is 5 to 10 µM; in test [1], 5 to 20 µM.
On the same counts, the results for `C[C@@H](OCC1CCCCC1)[C@@H](CO)NC(=O)[C@@H]1CN(C(=O)c2cnn(Cc3ccccc3)c2)CC12CN(C(=O)[C@H]1CC1(C)C)C2` [I-135A] are 0.5 to 5 µM and 0.5 to 5 µM.
For the molecule `CO[C@H]1COCC[C@H]1NC(=O)[C@@H]1CN(C(=O)c2cnn(Cc3ccccc3)c2)CC12CN(C(=O)[C@H]1CC1(C)C)C2` [I-134A], the half-maximal inhibitory concentration (IC50) is above 10 µM in the test on Kuramochi cells and above 20 µM in test [1].
Regarding `CC1(C)C[C@@H]1C(=O)N1CC2(CN(C(=O)c3cnn(Cc4ccccc4)c3)C[C@H]2C(=O)NCc2ccc(C3CCCCC3)nn2)C1` [I-377], the 50% inhibitory concentration (IC50) in the test on Kuramochi cells was above 10 µM; in test [1], above 20 µM.
Regarding `Cc1cc(C(=O)N2CC(C(=O)N[C@H](C(=O)N3CCCCC3)[C@@H](C)OCC3CCCCC3)C3(C2)CN(C(=O)[C@H]2CC2(C)C)C3)[nH]n1` (stereo partly shown) [I-264], the half-inhibitory concentration (IC50) with Kuramochi cells was above 10 µM; in test [1], above 20 µM.
For the molecule `C[C@@H](OCC1CCOCC1)[C@H](NC(=O)[C@@H]1CN(C(=O)c2cncs2)CC12CN(C(=O)C(C)(C)C1CC1)C2)C(C)(C)O` [I-341], the half-inhibitory concentration (IC50) in the test with Kuramochi cells was above 10 µM; in test [1], above 20 µM.
`CNC(=O)[C@@H](NC(=O)[C@@H]1CN(C(=O)c2cnn(Cc3ccc(F)cc3)c2)CC12CN(C(=O)[C@H]1CC1(C)C)C2)[C@@H](C)OCc1ccc(F)cc1` [I-136A]: the half-inhibitory concentration (IC50) in the test on Kuramochi cells was in the range of 0.5 to 5 µM; in test [1], 5 to 20 µM.
